Data: patent US8999974B2, “Acyl piperazine derivatives as TTX-S blockers” (Raqualia Pharma Inc., priority 2010, dated 2015)

Experiments:
human Nav1.7 = target: T1, human Nav1.7 (Homo sapiens, UniProt Q15858); test: FRET assay (EFS, FDSS) on CHO cells expressing human NaV1.7 channels; type: cell-based; details: FRET assay, CHO cells expressing human NaV1.7; read-out: IC50 against Nav1.7
T1 construct: expressed in transfected cells; host or cells: CHO
Protocol: (§1) This screen was used to determine the effects of compounds on human NaV1.3, human Nav1.7, and human Nav1.5 channels, utilising electrical field stimulation (EFS) system in 96-well plate format on FDSS (Hamamatsu Photonics) platform. The change of membrane potential was monitored with FRET dye pair, oxonol (DiSBAC2(3)) and coumarin (CC2-DMPE).
CHO cells expressing human NaV1.7 channels were grown in T225 flasks, in a 5% CO2 humidified incubator to about 80% confluence. Media composition consisted of HAM/F12 with Glutamax I, 10% FCS, 100 units/ml Penicillin and 100 microgram/ml Hygromycin.
(§2) Protocol: • Seeded each cell lines (1×10^5 cells/well) into poly-D-lysine coated 96-well plates prior to experimentation. • Incubated at 37° C. in 5% CO2 for 24 hours. • Washed each well with assay buffer (140 mM NaCl, 4.5 mM KCl, 10 mM D-Glucose, 2 mM CaCl2, 1 mM MgCl2, 10 mM HEPES, pH 7.4 adjusted with NaOH) twice. • Added 1st loading solution containing 10 microM CC2-DMPE and 0.06% Pluronic F-127 in assay buffer. • Incubated the plate at room temperature in dark for 1 hour. • Removed 1st loading solution and added 2nd loading solution containing 15 microM DiSBAC2(3), 0.555 mM VABSC-1 and 0.004% Pluronic F-127 in assay buffer. • Placed the plate under the dark at room temperature for 25 minutes. • Added compound solutions into the assay plate. • Set the assay plate in FDSS and placed an EFS device on the plate. • Measured EFS-induced fluorescent response by FDSS.
(§3) The data were analyzed and reported as normalized ratios of intensities measured at […]. The process of calculating these ratios was performed as follows:
(§4) [formula] This analysis was performed using a computerized specific program designed for FDSS generated data. Fluorescence ratio values were plotted using XLfit to determine an IC50 value for each compound.

human NaV1.3 = target: T2, human NaV1.3 (Homo sapiens, UniProt Q9NY46); test: FRET assay (EFS, FDSS) on HEK293 cells expressing human NaV1.3 channels; type: cell-based; details: FRET assay, HEK293 cells expressing human NaV1.3; read-out: IC50 against Nav1.3
T2 construct: expressed in transfected cells; host or cells: HEK293
Protocol: as §1
Each HEK293 cells expressing human NaV1.3 channels and HEK293 cells expressing human NaV1.5 channels were grown in T225 flasks, in a 5% CO2 humidified incubator to about 80% confluence. Media composition consisted of Dulbecco's Modified Eagle Medium (high glucose), 10% FCS, 100 units/ml Penicillin, 100 microgram/ml Streptomycin and 500 microgram/ml Geneticine.
as §2, §3, §4

T2 sequence (Q9NY46 whole entry): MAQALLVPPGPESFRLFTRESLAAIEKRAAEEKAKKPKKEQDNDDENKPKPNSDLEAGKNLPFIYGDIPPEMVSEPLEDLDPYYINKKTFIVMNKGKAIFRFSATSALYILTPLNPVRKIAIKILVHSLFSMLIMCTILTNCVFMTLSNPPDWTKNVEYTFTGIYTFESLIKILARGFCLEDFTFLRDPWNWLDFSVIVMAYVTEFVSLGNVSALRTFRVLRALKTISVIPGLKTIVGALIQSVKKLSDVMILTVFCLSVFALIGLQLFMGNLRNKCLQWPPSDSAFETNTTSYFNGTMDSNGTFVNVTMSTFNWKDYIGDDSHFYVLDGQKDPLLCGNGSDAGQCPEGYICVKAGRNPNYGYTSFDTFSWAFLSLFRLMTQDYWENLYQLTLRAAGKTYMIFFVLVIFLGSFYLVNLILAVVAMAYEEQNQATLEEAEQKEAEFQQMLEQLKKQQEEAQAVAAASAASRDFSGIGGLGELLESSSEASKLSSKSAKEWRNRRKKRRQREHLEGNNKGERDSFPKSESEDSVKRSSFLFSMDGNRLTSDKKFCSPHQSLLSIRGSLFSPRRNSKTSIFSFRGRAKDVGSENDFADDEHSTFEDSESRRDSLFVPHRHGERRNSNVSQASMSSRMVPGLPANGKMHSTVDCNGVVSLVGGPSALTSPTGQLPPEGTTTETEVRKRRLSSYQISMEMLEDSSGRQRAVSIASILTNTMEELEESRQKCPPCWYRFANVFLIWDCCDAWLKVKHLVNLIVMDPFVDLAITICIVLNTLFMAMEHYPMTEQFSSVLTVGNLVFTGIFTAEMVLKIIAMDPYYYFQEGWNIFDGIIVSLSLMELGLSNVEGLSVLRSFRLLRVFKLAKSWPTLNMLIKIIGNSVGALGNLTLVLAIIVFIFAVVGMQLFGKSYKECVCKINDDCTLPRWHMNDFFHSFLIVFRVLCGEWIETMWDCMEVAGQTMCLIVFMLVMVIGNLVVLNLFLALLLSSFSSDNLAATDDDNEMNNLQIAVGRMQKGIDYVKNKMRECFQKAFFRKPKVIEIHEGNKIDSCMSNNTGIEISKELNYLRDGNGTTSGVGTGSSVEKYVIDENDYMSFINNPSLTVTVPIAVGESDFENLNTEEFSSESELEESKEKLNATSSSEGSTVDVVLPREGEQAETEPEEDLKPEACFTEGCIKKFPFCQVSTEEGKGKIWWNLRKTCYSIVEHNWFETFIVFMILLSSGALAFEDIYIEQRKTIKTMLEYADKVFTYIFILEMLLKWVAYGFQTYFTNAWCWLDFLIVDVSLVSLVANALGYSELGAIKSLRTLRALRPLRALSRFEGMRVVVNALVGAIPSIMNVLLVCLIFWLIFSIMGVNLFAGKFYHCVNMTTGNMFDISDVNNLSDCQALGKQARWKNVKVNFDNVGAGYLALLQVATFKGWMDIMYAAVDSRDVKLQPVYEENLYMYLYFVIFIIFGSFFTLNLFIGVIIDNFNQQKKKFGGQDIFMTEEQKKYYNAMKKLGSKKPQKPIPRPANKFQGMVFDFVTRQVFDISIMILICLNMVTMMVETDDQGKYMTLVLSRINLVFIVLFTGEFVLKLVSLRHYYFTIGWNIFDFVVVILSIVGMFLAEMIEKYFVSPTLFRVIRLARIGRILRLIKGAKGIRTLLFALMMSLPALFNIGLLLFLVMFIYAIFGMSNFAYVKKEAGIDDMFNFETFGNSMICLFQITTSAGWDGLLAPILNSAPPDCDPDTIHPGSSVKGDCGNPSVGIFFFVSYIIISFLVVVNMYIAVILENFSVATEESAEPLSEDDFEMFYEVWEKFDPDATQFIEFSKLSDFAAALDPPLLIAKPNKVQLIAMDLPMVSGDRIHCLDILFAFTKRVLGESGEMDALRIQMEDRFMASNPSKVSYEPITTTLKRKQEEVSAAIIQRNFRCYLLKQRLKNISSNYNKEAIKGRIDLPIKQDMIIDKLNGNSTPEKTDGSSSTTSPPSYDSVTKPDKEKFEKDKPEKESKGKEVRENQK
T1 sequence (Q15858 whole entry): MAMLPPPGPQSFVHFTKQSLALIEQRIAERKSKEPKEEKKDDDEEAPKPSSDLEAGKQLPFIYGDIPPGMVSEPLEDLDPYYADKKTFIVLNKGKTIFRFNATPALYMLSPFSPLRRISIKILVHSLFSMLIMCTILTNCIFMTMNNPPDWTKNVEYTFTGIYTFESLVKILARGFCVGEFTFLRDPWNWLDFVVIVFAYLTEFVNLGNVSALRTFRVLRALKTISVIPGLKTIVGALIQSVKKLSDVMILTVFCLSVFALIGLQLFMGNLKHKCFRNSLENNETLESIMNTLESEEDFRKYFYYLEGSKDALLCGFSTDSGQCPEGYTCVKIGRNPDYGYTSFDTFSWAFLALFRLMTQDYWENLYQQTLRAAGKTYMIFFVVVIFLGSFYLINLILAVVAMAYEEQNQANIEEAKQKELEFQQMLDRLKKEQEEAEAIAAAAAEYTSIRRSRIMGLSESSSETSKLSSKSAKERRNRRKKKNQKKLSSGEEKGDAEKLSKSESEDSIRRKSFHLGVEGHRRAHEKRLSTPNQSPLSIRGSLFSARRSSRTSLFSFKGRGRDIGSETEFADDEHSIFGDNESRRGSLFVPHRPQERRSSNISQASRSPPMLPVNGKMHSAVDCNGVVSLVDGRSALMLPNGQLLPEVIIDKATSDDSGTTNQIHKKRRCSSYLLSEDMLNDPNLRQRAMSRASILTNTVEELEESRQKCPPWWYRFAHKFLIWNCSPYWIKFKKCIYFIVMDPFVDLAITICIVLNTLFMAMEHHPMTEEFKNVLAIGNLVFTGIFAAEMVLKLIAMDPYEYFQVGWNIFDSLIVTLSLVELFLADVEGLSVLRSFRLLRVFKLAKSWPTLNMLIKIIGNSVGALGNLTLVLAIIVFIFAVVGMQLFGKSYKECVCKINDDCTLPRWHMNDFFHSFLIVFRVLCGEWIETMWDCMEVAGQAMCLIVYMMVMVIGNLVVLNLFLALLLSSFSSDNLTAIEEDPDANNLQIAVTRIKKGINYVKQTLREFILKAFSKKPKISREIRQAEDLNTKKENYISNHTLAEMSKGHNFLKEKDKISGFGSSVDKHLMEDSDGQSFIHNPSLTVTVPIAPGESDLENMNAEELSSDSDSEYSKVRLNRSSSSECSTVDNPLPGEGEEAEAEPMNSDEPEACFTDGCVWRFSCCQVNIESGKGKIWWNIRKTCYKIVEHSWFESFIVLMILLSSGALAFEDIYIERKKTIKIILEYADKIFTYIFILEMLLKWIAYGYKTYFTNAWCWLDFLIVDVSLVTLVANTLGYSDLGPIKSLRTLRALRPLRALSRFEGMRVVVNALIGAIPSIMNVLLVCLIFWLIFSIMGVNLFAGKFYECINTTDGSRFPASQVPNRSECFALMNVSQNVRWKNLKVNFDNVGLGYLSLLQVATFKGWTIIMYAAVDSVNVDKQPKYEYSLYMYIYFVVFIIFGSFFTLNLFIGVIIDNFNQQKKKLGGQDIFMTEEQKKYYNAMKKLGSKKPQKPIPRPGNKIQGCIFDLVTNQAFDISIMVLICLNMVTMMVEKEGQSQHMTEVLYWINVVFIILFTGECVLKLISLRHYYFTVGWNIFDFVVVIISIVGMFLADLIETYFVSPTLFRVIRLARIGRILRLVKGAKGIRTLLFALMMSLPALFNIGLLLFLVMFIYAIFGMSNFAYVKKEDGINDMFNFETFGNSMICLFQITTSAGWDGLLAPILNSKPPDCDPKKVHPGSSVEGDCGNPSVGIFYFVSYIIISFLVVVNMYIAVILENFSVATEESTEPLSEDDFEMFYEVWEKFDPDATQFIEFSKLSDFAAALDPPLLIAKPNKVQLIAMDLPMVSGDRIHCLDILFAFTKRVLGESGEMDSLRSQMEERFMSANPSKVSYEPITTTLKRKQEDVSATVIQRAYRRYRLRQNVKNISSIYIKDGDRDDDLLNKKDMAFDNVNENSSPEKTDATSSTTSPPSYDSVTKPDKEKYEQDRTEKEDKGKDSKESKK

Row | Compound | IC50 (human Nav1.7) [µM] | IC50 (human NaV1.3) [µM]
1 | COc1ccccc1-c1cc(C(=O)N2CCN(c3cc(OCC(C)C)ncn3)CC2)[nH]n1 [Example 175] | < 3 | 
2 | CC(C)COc1cc(N2CCN(C(=O)c3ccc(C(F)(F)F)cc3O)CC2)ncn1 [Example 42, (2-hydroxy-4-(trifluoromethyl)phenyl)(4-(6-isobutoxypyrimidin-4-yl)piperazin-1-yl)methanone] | < 3 | 
3 | O=C(COc1cccc2cccnc12)N1CCN(c2cc(OCC(F)(F)F)ncn2)CC1 [Example 156, 2-(quinolin-8-yloxy)-1-(4-(6-(2,2,2-trifluoroethoxy)pyrimidin-4-yl)piperazin-1-yl)ethanone] | < 3 | 
4 | Cc1onc(-c2ccccc2)c1C(=O)N1CCN(c2cc(OCC(F)(F)F)ncn2)CC1 [Example 245, (5-methyl-3-phenylisoxazol-4-yl)(4-(6-(2,2,2-trifluoroethoxy)pyrimidin-4-yl)piperazin-1-yl)methanone] | < 3 | 
5 | O=C(c1csc(-c2ccccc2)n1)N1CCN(c2cc(OCC(F)(F)F)ncn2)CC1 [Example 166, (2-phenylthiazol-4-yl)(4-(6-(2,2,2-trifluoroethoxy)pyrimidin-4-yl)piperazin-1-yl)methanone] | < 3 | 
6 | O=C(CN1CCc2ccccc2C1=O)N1CCN(c2cc(OCC(F)(F)F)ncn2)CC1 [Example 157, 2-(2-oxo-2-(4-(6-(2,2,2-trifluoroethoxy)pyrimidin-4-yl)piperazin-1-yl)ethyl)-3,4-dihydroisoquinolin-1(2H)-one] |  | < 3
7 | CC(C)COc1cc(N2CCN(C(=O)COc3ccc4cccnc4c3)CC2)ncn1 [Example 127, 1-(4-(6-isobutoxypyrimidin-4-yl)piperazin-1-yl)-2-(quinolin-7-yloxy)ethanone] |  | < 3
8 | CC(C)COc1cc(N2CCN(C(=O)COc3cccc4ccncc34)CC2)ncn1 [Example 128, 1-(4-(6-isobutoxypyrimidin-4-yl)piperazin-1-yl)-2-(isoquinolin-8-yloxy)ethanone] |  | < 3
9 | CC(C)COc1cc(N2CCN(C(=O)c3cnn(-c4ccccc4)c3)CC2)ncn1 [Example 215, (4-(6-isobutoxypyrimidin-4-yl)piperazin-1-yl)(1-phenyl-1H-pyrazol-4-yl)methanone] |  | < 3
10 | Cc1ccc(C(=O)N2CCN(c3cc(OC4CCC4)ncn3)CC2)cc1F [Example 16] |  | < 3
11 | CC(C)COc1cc(N2CCN(C(=O)c3ccc(-n4cccn4)nc3)CC2)ncn1 [Example 214, (6-(1H-pyrazol-1-yl)pyridin-3-yl)(4-(6-isobutoxypyrimidin-4-yl)piperazin-1-yl)methanone] |  | < 3
12 | CC(C)COc1cc(N2CCN(C(=O)c3cc(-c4ccccc4)ncn3)CC2)ncn1 [Example 185, (4-(6-isobutoxypyrimidin-4-yl)piperazin-1-yl)(6-phenylpyrimidin-4-yl)methanone] |  | < 3
13 | Cc1ccc(C(=O)N2C[C@@H]3C[C@H]2CN3c2cc(OCC(C)C)ncn2)cc1F [Example 94, (3-fluoro-4-methylphenyl)((1S,4S)-5-(6-isobutoxypyrimidin-4-yl)-2,5-diazabicyclo[2.2.1]heptan-2-yl)methanone] |  | < 3
14 | CC(C)COc1cc(N2CCN(C(=O)C(NC(=O)OC(C)(C)C)c3ccccc3)CC2)ncn1 (stereo in doubt) [Example 11, (R)-tert-butyl (2-(4-(6-isobutoxypyrimidin-4-yl)piperazin-1-yl)-2-oxo-1-phenylethyl)carbamate] |  | < 3
15 | CC(C)COc1cc(N2CCN(C(=O)CCN3Cc4ccccc4C3=O)CC2)ncn1 [Example 61, 2-(3-(4-(6-isobutoxypyrimidin-4-yl)piperazin-1-yl)-3-oxopropyl)isoindolin-1-one] |  | < 3
16 | CC(C)COc1cc(N2CCN(C(=O)C(C)Oc3ccc(F)cc3)CC2)ncn1 (stereo not drawn) [Example 48, 2-(4-fluorophenoxy)-1-(4-(6-isobutoxypyrimidin-4-yl)piperazin-1-yl)propan-1-one] |  | < 3
17 | CC(C)COc1cc(N2CCN(C(=O)c3nn(C)c4ccc(F)cc34)CC2)ncn1 [Example 209, (5-fluoro-1-methyl-1H-indazol-3-yl)(4-(6-isobutoxypyrimidin-4-yl)piperazin-1-yl)methanone] |  | < 3
18 | CC(C)COc1cc(N2CCN(C(=O)c3csc(-c4ccccn4)n3)CC2)ncn1 [Example 191, (4-(6-isobutoxypyrimidin-4-yl)piperazin-1-yl)(2-(pyridin-2-yl)thiazol-4-yl)methanone] |  | < 3
19 | CC(C)Oc1cc(N2CCN(C(=O)c3nn(C)c4ccc(F)cc34)CC2)ncn1 [Example 210, (5-fluoro-1-methyl-1H-indazol-3-yl)(4-(6-isopropoxypyrimidin-4-yl)piperazin-1-yl)methanone] |  | < 3
20 | Cc1cc(C(=O)N2CCN(c3cc(OCC(C)C)ncn3)CC2)nn1-c1ccccc1 [Example 91] |  | < 3
21 | CCn1nc(C(=O)N2CCN(c3cc(OCC(C)C)ncn3)CC2)cc1C(F)(F)F [Example 228, (1-ethyl-5-(trifluoromethyl)-1H-pyrazol-3-yl)(4-(6-isobutoxypyrimidin-4-yl)piperazin-1-yl)methanone] |  | < 3
22 | CC(C)COc1cc(N2CCN(C(=O)c3cnn(Cc4ccccc4)c3)CC2)ncn1 [Example 171, (1-benzyl-1H-pyrazol-4-yl)(4-(6-isobutoxypyrimidin-4-yl)piperazin-1-yl)methanone] |  | < 3
23 | CC(C)COc1cc(N2CCN(C(=O)Cc3cn(C)c4ccccc34)CC2)ncn1 [Example 101, 1-(4-(6-isobutoxypyrimidin-4-yl)piperazin-1-yl)-2-(1-methyl-1H-indol-3-yl)ethanone] |  | < 3
24 | CC(C)COc1cc(N2CCN(C(=O)c3cc(-c4ccccc4)nn3C)CC2)ncn1 [Example 134, (4-(6-isobutoxpyrimidin-4-yl)piperazin-1-yl)(1-methyl-3-phenyl-1H-pyrazol-5-yl)methanone] |  | < 3
25 | CC(C)COc1cc(N2CCN(C(=O)c3cc(-c4cccnc4)nn3C)CC2)ncn1 [Example 189, (4-(6-isobutoxypyrimidin-4-yl)piperazin-1-yl)(1-methyl-3-(pyridin-3-yl)-1H-pyrazol-5-yl)methanone] |  | < 3
26 | CC(C)COc1cc(N2CCN(C(=O)c3cnc4ccccc4n3)CC2)ncn1 [Example 34, (4-(6-isobutoxypyrimidin-4-yl)piperazin-1-yl)(quinoxalin-2-yl)methanone] |  | < 3
27 | Cn1nc(C(=O)N2CCN(c3cc(OCC(F)(F)F)ncn3)CC2)c2ccccc21 [Example 30, (1-methyl-1H-indazol-3-yl)(4-(6-(2,2,2-trifluoroethoxy)pyrimidin-4-yl)piperazin-1-yl)methanone] |  | < 3
28 | O=C(c1ccc2cccc(O)c2n1)N1CCN(c2cc(OC3CCC3)ncn2)CC1 [Example 83, (4-(6-cyclobutoxypyrimidin-4-yl)piperazin-1-yl)(8-hydroxyquinolin-2-yl)methanone] |  | < 3
29 | Cc1c(C(=O)N2CCN(c3cc(OCC(C)C)ncn3)CC2)nnn1-c1ccc(F)cc1 [Example 202, (1-(4-fluorophenyl)-5-methyl-1H-1,2,3-triazol-4-yl)(4-(6-isobutoxypyrimidin-4-yl)piperazin-1-yl)methanone] |  | < 3
30 | CC(C)COc1cc(N2CCN(C(=O)c3ccc(-n4cccn4)cc3)CC2)ncn1 [Example 93, (4-(1H-pyrazol-1-yl)phenyl)(4-(6-isobutoxypyrimidin-4-yl)piperazin-1-yl)methanone] |  | < 3
